Data published in the supplement of paper PMC10627819.

Key:
Settings in all cases: main component drawn
[1] = system: S. aureus Newman; experiment: fitness (endpoint OD595 vs no drug) (fraction); higher = more growth
In short: (§1)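 Fitness is computed from the optical density at which cultures reach stationary phase, divided by the robust mean of no-drug control wells. Any value above 1 is set to 1. Cultures started at OD595 0.01 in 384-well plates with TSB, LB Lennox or CY at 37 °C, and OD595 was read every 30 min for 14 h against a first-reading background.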

[2] = system: S. aureus DSM 20231; experiment: Bliss interaction score (quartile over a dose matrix) (fitness difference); higher = more antagonism (negative = synergy)
In short: (§2)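 Growth was read as OD595 when cultures entered stationary phase, and each value was divided by the plate's robust no-drug mean and capped at 1. This normalised ratio is the fitness value, and fitness for each single drug came from the combination data. The Bliss score subtracts the expected fitness, taken as the product, from the observed fitness and is given as quartiles across technical, biological and donor/recipient replicates.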

[3] = system: S. pneumoniae D39V; experiment: as above
In short: as §2

[4] = system: S. aureus Newman; experiment: as above
In short: as §2

[5] = system: B. subtilis 168; experiment: as above
In short: as §2

[6] = system: S. pneumoniae D39V; experiment: fitness (endpoint OD595 vs no drug) (fraction); higher = more growth
In short: as §1

[7] = system: B. subtilis 168; experiment: as above
In short: as §1
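For Bliss interaction score (quartile over a dose matrix) in this document: first quartile when negative (synergy) and third quartile when positive (antagonism).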
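For fitness (endpoint OD595 vs no drug) in this document: OD595 on entry to stationary phase over no-drug wells; at most 1.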

CC[C@H](C)[C@H](N)C1=N[C@H](C(=O)N[C@@H](CC(C)C)C(=O)N[C@H](CCC(=O)O)C(=O)N[C@H](C(=O)N[C@H]2CCCCNC(=O)[C@H](CC(N)=O)NC(=O)[C@@H](CC(=O)O)NC(=O)[C@H](Cc3cnc[nH]3)NC(=O)[C@@H](Cc3ccccc3)NC(=O)[C@H]([C@@H](C)CC)NC(=O)[C@@H](CCCN)NC2=O)[C@@H](C)CC)CS1 [Bacitracin] + C/C(=C\C(=O)OCCCCCCCCC(=O)O)C[C@@H]1OC[C@H](C[C@@H]2O[C@H]2[C@@H](C)[C@H](C)O)[C@@H](O)[C@H]1O [Pseudomonic acid]
fitness, [1], one replicate
Settings	first compound 18.75 µg/mL	first compound 37.5 µg/mL	first compound 75 µg/mL
partner 0.0313 µg/mL	0.0438	0.029	0.0257
partner 0.0625 µg/mL	0.0196	0.0219	0.0077
partner 0.125 µg/mL	0.0416	0.0193	0.0115

Settings	Bliss interaction score
[2]	0.0189
[3]	-0.0953
[4]	0.0307
[5]	-0.0784

CC[C@H](C)[C@H](N)C1=N[C@H](C(=O)N[C@@H](CC(C)C)C(=O)N[C@H](CCC(=O)O)C(=O)N[C@H](C(=O)N[C@H]2CCCCNC(=O)[C@H](CC(N)=O)NC(=O)[C@@H](CC(=O)O)NC(=O)[C@H](Cc3cnc[nH]3)NC(=O)[C@@H](Cc3ccccc3)NC(=O)[C@H]([C@@H](C)CC)NC(=O)[C@@H](CCCN)NC2=O)[C@@H](C)CC)CS1 [Bacitracin] + CCCCCCCCCC(=O)N[C@@H]1[C@H]([C@@H]([C@H](O[C@H]1OC2=C3C=C4C=C2OC5=C(C=C(C=C5)[C@H]([C@H]6C(=O)N[C@@H](C7=C(C(=CC(=C7)O)OC8[C@H]([C@H]([C@@H]([C@H](O8)CO)O)O)O)C9=C(C=CC(=C9)[C@H](C(=O)N6)NC(=O)[C@@H]4NC(=O)[C@@H]1C2=CC(=CC(=C2)OC2=C(C=CC(=C2)[C@H](C(=O)N[C@H](CC2=CC(=C(O3)C=C2)Cl)C(=O)N1)N)O)O)O)C(=O)O)O[C@H]1[C@@H]([C@H]([C@@H]([C@H](O1)CO)O)O)NC(=O)C)Cl)CO)O)O [Teicoplanin]
fitness, [1]
Settings	first compound 18.75 µg/mL	first compound 37.5 µg/mL	first compound 75 µg/mL
partner 0.1562 µg/mL	0.777	0.249	0.0017
partner 0.3125 µg/mL	0.77	0.202	0.0042
partner 0.625 µg/mL	0.683	0.206	0

fitness, [1], one replicate
Settings	first compound 18.75 µg/mL	first compound 37.5 µg/mL	first compound 75 µg/mL
partner 0.62 µg/mL	0.543	0.0346	0.0093
partner 1.24 µg/mL	0.424	0.0167	0.0003
partner 2.48 µg/mL	0.0859	0.0387	0.0349

Settings	Bliss interaction score
[2]	-0.0716
[3]	-0.0678
[4]	0.0565
[5]	-0.119

CC[C@H](C)[C@H](N)C1=N[C@H](C(=O)N[C@@H](CC(C)C)C(=O)N[C@H](CCC(=O)O)C(=O)N[C@H](C(=O)N[C@H]2CCCCNC(=O)[C@H](CC(N)=O)NC(=O)[C@@H](CC(=O)O)NC(=O)[C@H](Cc3cnc[nH]3)NC(=O)[C@@H](Cc3ccccc3)NC(=O)[C@H]([C@@H](C)CC)NC(=O)[C@@H](CCCN)NC2=O)[C@@H](C)CC)CS1 [Bacitracin] + CN[C@H](CC(C)C)C(=O)N[C@H]1C(=O)N[C@@H](CC(N)=O)C(=O)N[C@H]2C(=O)N[C@H]3C(=O)N[C@H](C(=O)N[C@H](C(=O)O)c4cc(O)cc(O)c4-c4cc3ccc4O)[C@H](O)c3ccc(c(Cl)c3)Oc3cc2cc(c3O[C@@H]2O[C@H](CO)[C@@H](O)[C@H](O)[C@H]2O[C@H]2C[C@](C)(N)[C@H](O)[C@H](C)O2)Oc2ccc(cc2Cl)[C@H]1O [Vancomycin]
fitness, [1]
Settings	first compound 18.75 µg/mL	first compound 37.5 µg/mL	first compound 75 µg/mL
partner 0.1875 µg/mL	0.735	0.183	0.0338
partner 0.375 µg/mL	0.723	0.135	0.0309
partner 0.75 µg/mL	0.712	0.159	0.0262

Settings	Bliss interaction score
[2]	0.0843
[3]	-0.0651
[4]	-0.0422
[5]	0.0708

CC[C@H](C)[C@H](N)C1=N[C@H](C(=O)N[C@@H](CC(C)C)C(=O)N[C@H](CCC(=O)O)C(=O)N[C@H](C(=O)N[C@H]2CCCCNC(=O)[C@H](CC(N)=O)NC(=O)[C@@H](CC(=O)O)NC(=O)[C@H](Cc3cnc[nH]3)NC(=O)[C@@H](Cc3ccccc3)NC(=O)[C@H]([C@@H](C)CC)NC(=O)[C@@H](CCCN)NC2=O)[C@@H](C)CC)CS1 [Bacitracin] + CO/N=C(\C(=O)N[C@@H]1C(=O)N2C(C(=O)[O-])=C(C[N+]3(C)CCCC3)CS[C@H]12)c1csc(N)n1 [Cefepime]
fitness, [1]
Settings	first compound 18.75 µg/mL	first compound 37.5 µg/mL	first compound 75 µg/mL
partner 0.125 µg/mL	0.699	–	0.0274
partner 0.25 µg/mL	0.634	–	0.0298
partner 0.5 µg/mL	–	0.0986	0.0408

Settings	Bliss interaction score
[2]	0.0889
[3]	-0.144
[4]	-0.0863
[5]	-0.124

CC[C@H](C)[C@H](N)C1=N[C@H](C(=O)N[C@@H](CC(C)C)C(=O)N[C@H](CCC(=O)O)C(=O)N[C@H](C(=O)N[C@H]2CCCCNC(=O)[C@H](CC(N)=O)NC(=O)[C@@H](CC(=O)O)NC(=O)[C@H](Cc3cnc[nH]3)NC(=O)[C@@H](Cc3ccccc3)NC(=O)[C@H]([C@@H](C)CC)NC(=O)[C@@H](CCCN)NC2=O)[C@@H](C)CC)CS1 [Bacitracin] + Cn1nnc(-c2ccc(-c3ccc(N4C[C@H](CO)OC4=O)cc3F)cn2)n1 [Tedizolid]
fitness, [1]
Settings	first compound 18.75 µg/mL	first compound 37.5 µg/mL	first compound 75 µg/mL
partner 0.0625 µg/mL	0.646	0.0796	0.0039
partner 0.125 µg/mL	–	0.0327	0.0056
partner 0.25 µg/mL	0.0222	0.0202	0.0046

Settings	Bliss interaction score
[2]	-0.0663
[3]	0.12
[4]	-0.222
[5]	-0.0855

CC(=O)NC[C@H]1CN(c2ccc(N3CCOCC3)c(F)c2)C(=O)O1 [Linezolid] + CCC(C)C1C(=O)NC(=C)C(=O)NC(C(=O)NC(CSCC(C(=O)N1)NC(=O)/C(=C/C)/NC(=O)C(C(C)CC)N)C(=O)NC2C(SCC(NC(=O)CNC(=O)C3CCCN3C2=O)C(=O)NC(CCCCN)C(=O)NC4C(SCC(NC(=O)CNC(=O)C(NC(=O)C(NC(=O)C(NC(=O)CNC4=O)C)CC(C)C)CCSC)C(=O)NC(CC(=O)N)C(=O)NC(CCSC)C(=O)NC(CCCCN)C(=O)NC5C(SCC6C(=O)NC(C(=O)NC(CSC(C(C(=O)N6)NC(=O)C(NC5=O)C)C)C(=O)NC(CO)C(=O)NC(C(C)CC)C(=O)NC(CC7=CN=CN7)C(=O)NC(C(C)C)C(=O)NC(=C)C(=O)NC(CCCCN)C(=O)O)CC8=CN=CN8)C)C)C)CC(C)C [Nisin]
Settings	fitness
[6], first compound 0.105 µg/mL, partner 1.6 µg/mL	0.0032
[6], first compound 0.105 µg/mL, partner 3.2 µg/mL	0.0264
[6], first compound 0.105 µg/mL, partner 6.4 µg/mL	0.015
[6], first compound 0.2 µg/mL, partner 0.4275 µg/mL	0.804
[6], first compound 0.2 µg/mL, partner 0.855 µg/mL	0.657
[6], first compound 0.2 µg/mL, partner 1.71 µg/mL	0.0574
[6], first compound 0.21 µg/mL, partner 1.6 µg/mL	0
[6], first compound 0.21 µg/mL, partner 3.2 µg/mL	0.0008
[6], first compound 0.21 µg/mL, partner 6.4 µg/mL	0
[6], first compound 0.4 µg/mL, partner 0.4275 µg/mL	0.63
[6], first compound 0.4 µg/mL, partner 0.855 µg/mL	0.314
[6], first compound 0.4 µg/mL, partner 1.71 µg/mL	0.0313
[6], first compound 0.42 µg/mL, partner 1.6 µg/mL	0.0074
[6], first compound 0.42 µg/mL, partner 3.2 µg/mL	0.0019
[6], first compound 0.42 µg/mL, partner 6.4 µg/mL	0.0156
[6], first compound 0.8 µg/mL, partner 0.4275 µg/mL	0.132
[6], first compound 0.8 µg/mL, partner 0.855 µg/mL	0.0545
[6], first compound 0.8 µg/mL, partner 1.71 µg/mL	0.0571
[7], first compound 0.125 µg/mL, partner 0.5 µg/mL	0.503
[7], first compound 0.125 µg/mL, partner 1 µg/mL	0.421
[7], first compound 0.125 µg/mL, partner 2 µg/mL	0.111
[7], first compound 0.25 µg/mL, partner 0.5 µg/mL	0.167
[7], first compound 0.25 µg/mL, partner 1 µg/mL	0.0862
[7], first compound 0.25 µg/mL, partner 2 µg/mL	0.0407

fitness, [7], one replicate
Settings	first compound 0.0625 µg/mL	first compound 0.125 µg/mL	first compound 0.25 µg/mL	first compound 0.5 µg/mL
partner 0.5 µg/mL	0.875	–	–	0.0342
partner 1 µg/mL	0.743	–	–	0.0597
partner 1.25 µg/mL	–	0.734	0.502	0.074
partner 1.6 µg/mL	–	0.411	0.0282	0.027
partner 2 µg/mL	0.547	–	–	0.0406
partner 2.5 µg/mL	–	0.187	0.118	0.0568
partner 3.2 µg/mL	–	0.0219	0.0214	0.042
partner 4 µg/mL	–	0.038	0.0369	0.023
partner 5 µg/mL	–	0.0523	0.0422	0.0652
partner 6.4 µg/mL	–	0.0537	0.0573	0.0278
partner 8 µg/mL	–	0.0224	0.0244	0.019
partner 16 µg/mL	–	0.0095	0.0006	0.0145

Settings	Bliss interaction score
[2]	-0.0557
[3]	-0.0674
[4]	-0.0621
[5]	-0.0535
